Active and inactive are the calls of the source.

Data on 6 compounds can be found in ChEMBL document CHEMBL1201862, “PubChem BioAssay data set” (2004).

The target of experiment [1] is T1, Calpain-2 catalytic subunit (Sus scrofa, UniProt P43367).
T1 sequence (P43367 whole entry): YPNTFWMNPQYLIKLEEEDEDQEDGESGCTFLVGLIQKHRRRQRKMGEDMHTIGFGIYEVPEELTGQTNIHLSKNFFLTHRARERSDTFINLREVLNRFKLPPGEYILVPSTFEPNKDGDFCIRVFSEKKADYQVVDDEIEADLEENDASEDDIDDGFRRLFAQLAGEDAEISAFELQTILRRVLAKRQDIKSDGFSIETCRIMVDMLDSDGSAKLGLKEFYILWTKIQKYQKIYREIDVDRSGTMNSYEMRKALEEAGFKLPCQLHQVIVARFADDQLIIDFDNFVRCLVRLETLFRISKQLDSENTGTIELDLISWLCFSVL
Description: pig calpain II inhibitor potency, dose response, biochemical, fluorogenic peptide substrate (AID 1420). It counts as functional.

In experiment [2] the target is Potassium voltage-gated channel subfamily KQT member 2 (Rattus norvegicus, UniProt O88943, W236L). Put plainly: KCNQ2 channel potentiators, dose response, mechanism study for KCNQ2 potentiator project, cell-based, automated electrophysiology (AID 2603). It counts as functional.
Chain of Potassium voltage-gated channel subfamily KQT member 2 (O88943 whole entry W236L): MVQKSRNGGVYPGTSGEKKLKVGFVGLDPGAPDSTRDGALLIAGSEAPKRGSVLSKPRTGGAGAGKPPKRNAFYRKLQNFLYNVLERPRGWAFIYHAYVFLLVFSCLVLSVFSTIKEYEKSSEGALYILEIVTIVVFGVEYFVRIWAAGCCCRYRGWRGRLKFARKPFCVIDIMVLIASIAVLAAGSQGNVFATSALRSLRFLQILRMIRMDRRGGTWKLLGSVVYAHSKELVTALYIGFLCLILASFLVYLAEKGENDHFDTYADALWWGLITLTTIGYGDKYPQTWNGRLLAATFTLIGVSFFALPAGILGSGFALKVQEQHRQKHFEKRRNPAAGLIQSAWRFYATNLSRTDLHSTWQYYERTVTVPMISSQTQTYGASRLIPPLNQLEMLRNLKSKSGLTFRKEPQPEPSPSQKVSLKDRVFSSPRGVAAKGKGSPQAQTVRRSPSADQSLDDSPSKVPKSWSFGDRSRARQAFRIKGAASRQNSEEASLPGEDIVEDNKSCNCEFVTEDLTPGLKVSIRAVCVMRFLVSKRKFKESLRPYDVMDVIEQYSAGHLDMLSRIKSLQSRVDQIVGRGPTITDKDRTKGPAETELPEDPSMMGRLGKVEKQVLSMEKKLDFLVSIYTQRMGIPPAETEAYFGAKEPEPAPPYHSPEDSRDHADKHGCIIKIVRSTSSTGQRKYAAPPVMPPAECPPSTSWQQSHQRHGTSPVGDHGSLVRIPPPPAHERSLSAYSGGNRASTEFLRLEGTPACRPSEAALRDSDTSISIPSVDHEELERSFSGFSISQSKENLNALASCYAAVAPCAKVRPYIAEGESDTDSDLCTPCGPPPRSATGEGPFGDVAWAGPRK
Experiment [3] addresses T2, Estrogen receptor beta (Homo sapiens, UniProt Q92731).
The target of experiment [4] is T2, Estrogen receptor beta. Description: ERβ–SRC-3 coactivator interaction inhibitors, confirmation, orthogonal assay, biochemical, ELISA, streptavidin-HRP readout (AID 1060). A general note: In an ELISA, binding on a coated surface is turned into a signal by an enzyme label.
Experiment [5] in a line: growth suppression of PTEN-null colon cells, dose response, cell-based, HCT116 PTEN knockout (AID 1047).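 Note: HCT116 colon tumor cells with PTEN knocked out; cells exposed to compound for 60 hours before readout; potency for loss of cell viability measured by luminescence.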 It counts as functional.
A short description of experiment [6]: cytotoxicity in KRAS-transformed pancreatic duct cells, primary screen, cell-based, fluorescence, HTS (AID 431).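 Note: cell line used: HPDE-C7K.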 It counts as functional. The settings on record: Homo sapiens.
Experiment [7] is described as follows: growth suppression of beta-catenin-knockout colon cells, dose response, cell-based, HCT116, human colon tumor (AID 1045).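 Note: HCT116 colon tumor cells with beta catenin knocked out; cells exposed to compound for 60 hours.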 It counts as functional.
Experiment [8] addresses G-protein coupled receptor 55 (Homo sapiens, UniProt Q9Y2T6). Description: GPR55 antagonists blocking LPI-driven arrestin recruitment, primary screen, imaging, U2OS, beta-arrestin-GFP, LPI agonist (AID 2013).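 Note: antagonist potency measured as reduced agonist-driven arrestin aggregation.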 It counts as functional. For orientation: Activated receptors often draw arrestin, which recruitment assays turn into a signal.
Experiment [9] in a line: inhibitors of clade B AD8 Env fusion, dose response, cell-based, cherry-pick (AID 652062).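 Note: luciferase signal from cell-cell fusion driven by HIV-1 clade B AD8 Env; potency is for inhibitors of fusion seen as a drop in luminescence.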 It counts as functional.
A short description of experiment [10]: ZM109 Env clade C HIV-1 fusion inhibitors, dose response, HeLa effector, CEM target cells, luciferase, cherry-pick (AID 652058). It counts as functional, cell-based.
A short description of experiment [11]: off-target signal loss in HeLa-CEM21 co-culture – HeLa F-luc CTL cells, cherry-picked, counter-screen for HIV-1 Env fusion inhibitor project, dose response (AID 652040).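 Note: potency for signal decrease marking cytotoxic or nonspecific inhibition.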 It counts as functional, cell-based. (In general: A counterscreen serves to expose hits that act by an unwanted route or on another target.)
Experiment [12] is described as follows: cytotoxicity in HPDE-C7 cells, cell-based, fluorescence, HTS (AID 430). It counts as functional. Conditions: Homo sapiens.
Experiment [13] can be described thus: inhibitors of HIV Env-driven cell fusion, dose response, cherry-pick (AID 652057). It counts as functional, cell-based.
Another experiment concerns the target Procathepsin L (Homo sapiens, UniProt P07711). Description: cathepsin L inhibitors, dose response, counter-screen for M1/M17 aminopeptidase inhibitor project, biochemical, QFRET, 1536-well (AID 2214).
For experiment [14], the target named is T3, Replicative DNA helicase DnaB (Mycobacterium tuberculosis, UniProt P9WMR3).
T3 sequence (P9WMR3 whole entry): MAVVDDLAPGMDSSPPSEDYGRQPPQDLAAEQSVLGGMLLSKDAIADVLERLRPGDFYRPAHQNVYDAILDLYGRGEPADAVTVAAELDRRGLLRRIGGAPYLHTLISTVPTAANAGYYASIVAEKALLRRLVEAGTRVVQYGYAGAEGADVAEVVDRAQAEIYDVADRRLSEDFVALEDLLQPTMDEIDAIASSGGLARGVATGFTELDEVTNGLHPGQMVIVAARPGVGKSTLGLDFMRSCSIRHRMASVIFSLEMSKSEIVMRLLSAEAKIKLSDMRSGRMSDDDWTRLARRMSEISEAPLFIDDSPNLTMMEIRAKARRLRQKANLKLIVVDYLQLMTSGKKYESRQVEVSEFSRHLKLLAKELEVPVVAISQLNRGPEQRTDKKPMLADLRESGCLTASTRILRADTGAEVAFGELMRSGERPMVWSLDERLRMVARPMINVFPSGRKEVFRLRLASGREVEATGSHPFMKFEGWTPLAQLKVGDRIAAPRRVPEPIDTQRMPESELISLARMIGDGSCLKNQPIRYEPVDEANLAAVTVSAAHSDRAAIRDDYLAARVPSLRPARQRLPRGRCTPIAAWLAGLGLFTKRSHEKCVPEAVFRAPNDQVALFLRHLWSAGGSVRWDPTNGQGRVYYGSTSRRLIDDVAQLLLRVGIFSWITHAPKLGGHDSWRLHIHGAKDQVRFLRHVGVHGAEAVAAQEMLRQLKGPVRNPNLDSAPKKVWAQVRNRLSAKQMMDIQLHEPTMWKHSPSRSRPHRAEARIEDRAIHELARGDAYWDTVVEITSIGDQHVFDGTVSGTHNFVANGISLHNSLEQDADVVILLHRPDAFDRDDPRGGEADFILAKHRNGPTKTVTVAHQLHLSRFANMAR
Description: DnaB intein splicing inhibitors, dose response, biochemical, cell-free fluorescence (AID 449749). It counts as functional.

A further experiment deals with T4, Leucine aminopeptidase (Plasmodium falciparum 3D7, UniProt Q8IL11).
T4 sequence (Q8IL11 whole entry): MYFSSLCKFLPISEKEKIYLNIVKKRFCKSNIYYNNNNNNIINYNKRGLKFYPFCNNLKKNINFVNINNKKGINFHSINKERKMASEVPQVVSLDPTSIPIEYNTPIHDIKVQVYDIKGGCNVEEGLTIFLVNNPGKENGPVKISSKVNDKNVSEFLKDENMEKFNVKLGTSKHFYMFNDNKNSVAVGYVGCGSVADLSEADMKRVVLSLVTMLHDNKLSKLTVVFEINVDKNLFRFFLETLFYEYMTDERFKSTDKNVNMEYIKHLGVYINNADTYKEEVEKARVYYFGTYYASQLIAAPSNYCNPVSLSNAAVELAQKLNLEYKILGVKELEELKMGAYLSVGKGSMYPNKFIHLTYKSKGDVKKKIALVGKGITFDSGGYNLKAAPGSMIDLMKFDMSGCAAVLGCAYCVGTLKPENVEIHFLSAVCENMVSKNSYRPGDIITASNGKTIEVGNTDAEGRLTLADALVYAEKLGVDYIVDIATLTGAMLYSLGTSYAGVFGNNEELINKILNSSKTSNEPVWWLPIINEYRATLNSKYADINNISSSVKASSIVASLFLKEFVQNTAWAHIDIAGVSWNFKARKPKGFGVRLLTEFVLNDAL
Description: P. falciparum M17LAP inhibitors, primary screen, biochemical, fluorogenic H-Leu-NHMec substrate, 1536-well (AID 1619). It counts as functional.

Another experiment deals with T5, Protein RecA (Mycobacterium tuberculosis, UniProt P9WHJ3).
T5 sequence (P9WHJ3 whole entry): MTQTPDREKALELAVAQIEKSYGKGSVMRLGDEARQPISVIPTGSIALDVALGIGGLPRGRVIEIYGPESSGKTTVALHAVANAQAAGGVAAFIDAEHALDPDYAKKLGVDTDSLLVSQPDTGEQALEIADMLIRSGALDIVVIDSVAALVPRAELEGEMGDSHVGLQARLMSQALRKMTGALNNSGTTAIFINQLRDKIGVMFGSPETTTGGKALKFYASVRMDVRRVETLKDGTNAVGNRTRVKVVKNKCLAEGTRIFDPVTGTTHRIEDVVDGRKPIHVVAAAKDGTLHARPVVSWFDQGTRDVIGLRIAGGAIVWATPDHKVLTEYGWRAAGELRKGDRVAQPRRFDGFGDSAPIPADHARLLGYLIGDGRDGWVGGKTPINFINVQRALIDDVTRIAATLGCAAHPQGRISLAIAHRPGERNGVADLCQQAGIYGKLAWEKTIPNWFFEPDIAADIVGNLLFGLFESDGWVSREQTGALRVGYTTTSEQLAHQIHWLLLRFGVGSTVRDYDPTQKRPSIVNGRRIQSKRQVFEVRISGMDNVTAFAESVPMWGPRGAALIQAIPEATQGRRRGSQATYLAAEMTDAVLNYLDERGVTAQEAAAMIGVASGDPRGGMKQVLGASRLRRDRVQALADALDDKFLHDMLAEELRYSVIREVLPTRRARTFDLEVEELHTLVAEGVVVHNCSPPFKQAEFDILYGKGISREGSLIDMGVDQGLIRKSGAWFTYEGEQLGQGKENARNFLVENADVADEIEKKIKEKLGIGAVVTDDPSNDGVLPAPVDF
Put plainly: Fluorescence Cell-Free Homogeneous Dose Retest to Identify Inhibitors of RecA-Intein Splicing Activity. [Related pubchem assays (depositor defined):AID2097, AID2223, AID489010, AID492950]. It counts as functional.

In a further experiment the target is Aspartyl aminopeptidase (Plasmodium falciparum 3D7, UniProt Q8I2J3). Description: Counterscreen for inhibitors of M1 and M17 aminopeptidases: QFRET-based biochemical high throughput dose response assay for inhibitors of the Plasmodium falciparum M18 Aspartyl Aminopeptidase (PFM18AAP). [Related PubChem assays: 1619 (Screening assay (M17LAP inhibitors).), 1445 (Screening assay (M1AAP inhibitors).)].
Chain of Aspartyl aminopeptidase (Q8I2J3 whole entry): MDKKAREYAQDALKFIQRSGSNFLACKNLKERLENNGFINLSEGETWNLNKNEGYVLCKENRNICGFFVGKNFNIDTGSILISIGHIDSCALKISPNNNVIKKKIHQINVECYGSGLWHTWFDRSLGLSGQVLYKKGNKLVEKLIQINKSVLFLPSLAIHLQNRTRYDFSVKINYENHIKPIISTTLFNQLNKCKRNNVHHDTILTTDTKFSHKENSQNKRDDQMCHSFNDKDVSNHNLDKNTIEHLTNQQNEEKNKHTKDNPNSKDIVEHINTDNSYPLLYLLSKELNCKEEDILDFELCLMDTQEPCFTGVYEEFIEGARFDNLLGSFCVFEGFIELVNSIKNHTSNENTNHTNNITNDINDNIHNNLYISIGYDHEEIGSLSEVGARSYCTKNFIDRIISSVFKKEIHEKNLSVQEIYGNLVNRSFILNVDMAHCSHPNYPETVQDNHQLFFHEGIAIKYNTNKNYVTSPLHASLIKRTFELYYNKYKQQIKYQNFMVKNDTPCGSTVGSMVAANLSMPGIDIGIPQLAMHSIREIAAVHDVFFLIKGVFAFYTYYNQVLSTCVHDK

Experiment [15] concerns the target Protein-tyrosine kinase 2-beta (Homo sapiens, UniProt Q14289).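 Note: potency of inhibitors of PYK2 kinase phosphorylation of poly-GT substrate.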
Another experiment has as its target Large T antigen (Simian virus 40, UniProt P03070). It counts as functional, Betapolyomavirus macacae.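 Note: Confirmatory-stage PubChem screen for compounds that inhibit SV40 T antigen.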
Experiment [16] concerns the target Neuropeptides B/W receptor type 1 (Homo sapiens, UniProt P48145). Put plainly: Fluorescence-based dose response cell-based high throughput screening assay to identify antagonists of the G-protein coupled receptor 7 (GPR7). [Related pubchem assays: 1952 (Screening assay (GPR7 antagonists).), 1880 (Summary AID.)]. It counts as functional.
In experiment [17] the target is T6, Neuropeptide Y receptor type 1 (Homo sapiens, UniProt P25929).
T6 sequence (P25929 whole entry): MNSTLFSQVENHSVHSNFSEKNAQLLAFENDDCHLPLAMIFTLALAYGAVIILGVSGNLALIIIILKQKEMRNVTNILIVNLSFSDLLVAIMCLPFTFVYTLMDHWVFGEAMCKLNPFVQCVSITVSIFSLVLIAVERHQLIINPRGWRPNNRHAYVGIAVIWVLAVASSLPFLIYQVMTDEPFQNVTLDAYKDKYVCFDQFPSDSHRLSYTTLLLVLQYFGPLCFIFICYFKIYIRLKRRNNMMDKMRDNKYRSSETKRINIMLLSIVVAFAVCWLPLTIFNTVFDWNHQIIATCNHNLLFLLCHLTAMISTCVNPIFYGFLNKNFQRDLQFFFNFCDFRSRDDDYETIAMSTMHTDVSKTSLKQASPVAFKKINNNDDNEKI
Description: NPY-Y1 receptor antagonist potency, dose response, cell-based (AID 1277). It counts as functional.

Experiment [18] concerns the target T7, Neuropeptide Y receptor type 2 (Homo sapiens, UniProt P49146).
T7 sequence (P49146 whole entry): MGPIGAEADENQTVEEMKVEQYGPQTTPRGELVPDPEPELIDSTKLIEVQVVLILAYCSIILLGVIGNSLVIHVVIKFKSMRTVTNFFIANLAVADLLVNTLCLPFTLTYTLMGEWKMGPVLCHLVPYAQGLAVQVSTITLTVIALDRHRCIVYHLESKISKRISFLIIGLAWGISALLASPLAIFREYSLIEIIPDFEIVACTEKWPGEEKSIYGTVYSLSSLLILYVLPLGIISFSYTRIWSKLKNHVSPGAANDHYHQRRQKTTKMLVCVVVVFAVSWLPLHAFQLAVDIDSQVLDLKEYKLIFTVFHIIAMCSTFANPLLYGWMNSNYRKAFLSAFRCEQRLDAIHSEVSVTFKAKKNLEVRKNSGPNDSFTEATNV
Description: NPY-Y2 antagonist potency, selectivity check, dose response, counter-screen for NPY-Y1 antagonist project, cell-based (AID 1278). It counts as functional.

Experiment [19] addresses Melanin-concentrating hormone receptor 1 (Homo sapiens, UniProt Q99705). Put plainly: Fluorescence-based counterscreen for antagonists of the G-protein coupled receptor 7 (GPR7): cell-based high throughput dose response assay to identify antagonists of the melanin-concentrating hormone receptor 1 (MCHR1). It counts as functional.

T2 sequence (Q92731 whole entry): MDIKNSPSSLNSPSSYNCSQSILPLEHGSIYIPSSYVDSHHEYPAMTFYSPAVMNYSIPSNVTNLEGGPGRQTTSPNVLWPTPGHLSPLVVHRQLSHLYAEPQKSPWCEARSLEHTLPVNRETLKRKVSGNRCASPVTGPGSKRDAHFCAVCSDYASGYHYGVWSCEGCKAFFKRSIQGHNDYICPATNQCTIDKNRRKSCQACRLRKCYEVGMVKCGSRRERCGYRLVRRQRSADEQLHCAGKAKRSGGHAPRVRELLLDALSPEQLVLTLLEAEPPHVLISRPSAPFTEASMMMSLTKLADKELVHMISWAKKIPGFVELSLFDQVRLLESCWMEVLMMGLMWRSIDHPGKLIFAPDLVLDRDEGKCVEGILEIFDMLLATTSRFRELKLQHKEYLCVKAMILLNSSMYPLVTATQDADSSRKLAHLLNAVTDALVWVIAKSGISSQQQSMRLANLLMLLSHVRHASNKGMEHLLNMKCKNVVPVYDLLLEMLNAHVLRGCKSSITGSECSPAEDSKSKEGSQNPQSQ
Chain of Procathepsin L (P07711 whole entry): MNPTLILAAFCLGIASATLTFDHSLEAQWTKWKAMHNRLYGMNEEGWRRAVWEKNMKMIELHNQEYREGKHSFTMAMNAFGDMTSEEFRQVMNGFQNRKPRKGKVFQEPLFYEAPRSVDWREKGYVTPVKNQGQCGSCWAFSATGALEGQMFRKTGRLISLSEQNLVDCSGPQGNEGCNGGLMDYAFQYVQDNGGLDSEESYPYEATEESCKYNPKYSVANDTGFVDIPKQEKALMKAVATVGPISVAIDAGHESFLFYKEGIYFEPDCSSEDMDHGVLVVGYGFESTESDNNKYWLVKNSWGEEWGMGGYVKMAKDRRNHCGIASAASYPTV
Chain of G-protein coupled receptor 55 (Q9Y2T6 whole entry, the tested form may be a part): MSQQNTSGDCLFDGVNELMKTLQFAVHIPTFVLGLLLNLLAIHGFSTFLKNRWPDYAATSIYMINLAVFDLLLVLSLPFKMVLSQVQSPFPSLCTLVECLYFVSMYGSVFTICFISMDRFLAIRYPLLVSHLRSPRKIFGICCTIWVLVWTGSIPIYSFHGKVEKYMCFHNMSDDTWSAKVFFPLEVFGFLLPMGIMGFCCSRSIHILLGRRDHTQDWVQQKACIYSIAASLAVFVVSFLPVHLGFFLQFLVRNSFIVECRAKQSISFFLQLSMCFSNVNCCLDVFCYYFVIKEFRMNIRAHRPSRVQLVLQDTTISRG
Chain of Neuropeptides B/W receptor type 1 (P48145 whole entry): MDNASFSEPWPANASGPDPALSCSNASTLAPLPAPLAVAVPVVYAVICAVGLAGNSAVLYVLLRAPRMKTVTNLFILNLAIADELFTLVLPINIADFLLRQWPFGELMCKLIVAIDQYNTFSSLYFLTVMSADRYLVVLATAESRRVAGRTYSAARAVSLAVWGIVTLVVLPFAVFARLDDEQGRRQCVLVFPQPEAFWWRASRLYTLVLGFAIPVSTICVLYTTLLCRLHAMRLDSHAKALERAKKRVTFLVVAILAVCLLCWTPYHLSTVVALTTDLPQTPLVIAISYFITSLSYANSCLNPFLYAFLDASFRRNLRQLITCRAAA
Chain of Large T antigen (P03070 whole entry): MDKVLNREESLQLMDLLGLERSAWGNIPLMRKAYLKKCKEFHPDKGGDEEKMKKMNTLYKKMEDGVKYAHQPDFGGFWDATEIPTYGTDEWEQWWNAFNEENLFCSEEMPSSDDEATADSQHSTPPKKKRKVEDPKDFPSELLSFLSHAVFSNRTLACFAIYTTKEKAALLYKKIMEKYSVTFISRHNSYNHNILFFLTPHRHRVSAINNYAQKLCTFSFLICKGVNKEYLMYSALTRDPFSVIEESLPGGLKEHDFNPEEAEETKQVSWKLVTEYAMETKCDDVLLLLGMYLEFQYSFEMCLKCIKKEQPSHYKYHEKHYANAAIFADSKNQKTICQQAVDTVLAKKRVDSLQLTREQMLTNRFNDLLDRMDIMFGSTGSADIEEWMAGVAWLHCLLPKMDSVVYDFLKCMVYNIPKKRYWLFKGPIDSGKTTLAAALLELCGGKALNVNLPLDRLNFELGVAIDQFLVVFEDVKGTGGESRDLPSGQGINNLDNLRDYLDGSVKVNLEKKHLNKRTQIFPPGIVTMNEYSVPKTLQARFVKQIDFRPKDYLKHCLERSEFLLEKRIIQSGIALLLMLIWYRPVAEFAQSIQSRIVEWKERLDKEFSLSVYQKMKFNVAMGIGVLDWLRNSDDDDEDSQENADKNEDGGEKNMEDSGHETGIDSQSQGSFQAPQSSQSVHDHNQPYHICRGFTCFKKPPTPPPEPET
Chain of Melanin-concentrating hormone receptor 1 (Q99705 whole entry): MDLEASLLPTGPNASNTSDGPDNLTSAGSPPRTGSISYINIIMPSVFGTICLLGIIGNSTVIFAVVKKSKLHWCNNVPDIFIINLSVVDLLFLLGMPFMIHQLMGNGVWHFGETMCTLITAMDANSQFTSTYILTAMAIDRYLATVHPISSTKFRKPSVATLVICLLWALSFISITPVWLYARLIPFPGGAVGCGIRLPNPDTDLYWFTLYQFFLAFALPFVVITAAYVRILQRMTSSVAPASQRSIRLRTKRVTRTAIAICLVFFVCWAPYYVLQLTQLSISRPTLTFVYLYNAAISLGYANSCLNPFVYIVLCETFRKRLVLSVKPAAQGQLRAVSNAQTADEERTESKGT
Chain of Protein-tyrosine kinase 2-beta (Q14289 whole entry): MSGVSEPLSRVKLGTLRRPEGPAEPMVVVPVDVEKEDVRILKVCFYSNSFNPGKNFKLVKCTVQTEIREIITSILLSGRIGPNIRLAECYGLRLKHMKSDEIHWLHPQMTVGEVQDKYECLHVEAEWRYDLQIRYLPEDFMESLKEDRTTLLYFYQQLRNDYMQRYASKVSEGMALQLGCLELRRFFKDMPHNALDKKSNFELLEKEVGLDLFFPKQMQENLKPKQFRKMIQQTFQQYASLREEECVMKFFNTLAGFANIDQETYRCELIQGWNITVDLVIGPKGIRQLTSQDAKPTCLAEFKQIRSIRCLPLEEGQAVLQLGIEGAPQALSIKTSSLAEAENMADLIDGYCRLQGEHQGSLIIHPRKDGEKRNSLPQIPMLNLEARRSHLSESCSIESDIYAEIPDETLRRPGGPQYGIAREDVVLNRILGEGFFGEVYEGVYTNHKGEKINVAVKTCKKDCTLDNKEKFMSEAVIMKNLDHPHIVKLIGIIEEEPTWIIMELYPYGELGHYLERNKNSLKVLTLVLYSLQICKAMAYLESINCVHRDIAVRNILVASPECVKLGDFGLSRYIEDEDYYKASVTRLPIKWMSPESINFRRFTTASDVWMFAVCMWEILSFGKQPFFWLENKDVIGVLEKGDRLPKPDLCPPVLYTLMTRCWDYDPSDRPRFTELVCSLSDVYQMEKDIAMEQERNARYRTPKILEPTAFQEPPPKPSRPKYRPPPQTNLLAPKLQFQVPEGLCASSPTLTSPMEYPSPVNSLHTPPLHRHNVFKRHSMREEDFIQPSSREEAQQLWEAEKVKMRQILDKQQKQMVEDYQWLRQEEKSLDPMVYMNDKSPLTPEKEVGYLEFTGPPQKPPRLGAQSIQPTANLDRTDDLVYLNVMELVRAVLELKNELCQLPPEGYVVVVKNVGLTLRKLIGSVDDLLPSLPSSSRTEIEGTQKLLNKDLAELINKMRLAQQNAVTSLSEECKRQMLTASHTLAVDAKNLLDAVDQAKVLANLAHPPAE

Usually IC50 stands for the point on the concentration scale where inhibition reaches its midpoint. A word on the EC50: it is the midpoint of the concentration-response curve. Turning to `CCCCn1c(-c2csc(C(C)C)c2)n[nH]c1=S`, the 50% inhibitory concentration (IC50) in experiment [1] was > 50 µM (not active). Also, in experiment [2], the EC50 is 308 µM (active).

On to `CC1CCCCN1CC(=O)Nc1sc2c(c1C#N)CCC2` (centres undefined), for which the IC50 against Estrogen receptor beta [3] and at Estrogen receptor beta [4] was > 50 µM (not active) each time.

In general, AC50 refers to the midpoint of the concentration-response curve, whichever way the signal moves. `COc1ccc(CCN2C(=O)c3[nH]nc(-c4ccccc4O)c3C2c2ccc(C)cc2)cc1OC` (centres undefined): the concentration for a half-maximal effect (EC50) was 21.1 µM (active) in experiment [5], 9.9 µM (active) in [6], 21.6 µM (active) in [7] and 8.11 µM (active) in experiment [12]. Further, in experiment [8], the IC50 was 2.9 µM (active). Further, the AC50 in experiment [9] was 6.57 µM (active); in experiment [10], 2.58 µM (active); in [11] it was 3.34 µM (active); in experiment [13], 2.11 µM (active).

In the case of `O=[N+]([O-])c1cccc(-c2cc(O)n[nH]2)c1`, the results for the IC50 on Procathepsin L, at Leucine aminopeptidase and against Aspartyl aminopeptidase were > 59.6 µM (not active), 6.99 µM (active) and > 73.5 µM (not active), respectively. For the same compound, the AC50 in experiment [14] is 7.14 µM (active). Further, the EC50 on Protein RecA was 2.57 µM (active).

`CCc1ccc2nc3n[nH]c(N)c3cc2c1`: the figures for the IC50 (in [15]; at Large T antigen) were 24.9 µM (not active) and 13.5 µM (active), respectively.

With `O=C(NC1CCCCC1)C(c1ccncc1)N(Cc1ccc2c(c1)OCO2)C(=O)c1cnsn1` (centres undefined), the IC50 in experiment [16] was > 43.8 µM (not active); in experiment [17], 32.2 µM (not active); in experiment [18] it was > 35 µM (not active); in [19], > 43.8 µM (not active).
